According to the CheMixHub drug solubility set:

Experiment: xn = mol fraction of the nth substance listed, in the solute-free solvent

Nc1ncc(Br)nc1Br + CCO + O
solubility (g/100 g solution)
Details	278.15 K	283.15 K	288.15 K	293.15 K	298.15 K	303.15 K	308.15 K	313.15 K	318.15 K	323.15 K
x2 = 0.04165	0.0211	0.0254	0.0296	0.0345	0.0394	0.044	0.0494	0.0552	0.0608	0.0668
x2 = 0.08908	0.0644	0.0768	0.0889	0.102	0.116	0.128	0.142	0.158	0.172	0.188
x2 = 0.1436	0.124	0.148	0.171	0.197	0.222	0.245	0.271	0.299	0.326	0.354
x2 = 0.2068	0.179	0.214	0.249	0.286	0.324	0.358	0.395	0.438	0.479	0.521
x2 = 0.2812	0.211	0.256	0.304	0.349	0.397	0.444	0.493	0.546	0.604	0.661
x2 = 0.3698	0.245	0.296	0.35	0.412	0.474	0.527	0.589	0.656	0.726	0.798
x2 = 0.4772	0.274	0.338	0.41	0.481	0.546	0.618	0.693	0.776	0.863	0.957
x2 = 0.6101	0.321	0.396	0.476	0.557	0.644	0.729	0.82	0.919	1.03	1.15
x2 = 0.7788	0.4	0.489	0.59	0.683	0.792	0.891	1	1.13	1.26	1.4
